From ChEMBL document CHEMBL1681764, “Isolation, structure identification and SAR studies on thiosugar sulfonium salts, neosalaprinol and neoponkoranol, as potent α-glucosidase inhibitors” (Bioorg Med Chem, 2011)

Columns and labels:
[1] = target: T1, Sucrase-isomaltase, intestinal (Rattus norvegicus, UniProt P23739); test: Inhibition of rat intestinal sucrase
[2] = target: T1, Sucrase-isomaltase, intestinal; test: Inhibition of rat intestinal isomaltase
[3] = target: Sucrase-isomaltase, intestinal (Rattus norvegicus) (UniProt P23739); test: Inhibition of rat intestinal sucrase at >384 uM
Chain of Sucrase-isomaltase, intestinal (Rattus norvegicus) (P23739 1-1013 limits assumed): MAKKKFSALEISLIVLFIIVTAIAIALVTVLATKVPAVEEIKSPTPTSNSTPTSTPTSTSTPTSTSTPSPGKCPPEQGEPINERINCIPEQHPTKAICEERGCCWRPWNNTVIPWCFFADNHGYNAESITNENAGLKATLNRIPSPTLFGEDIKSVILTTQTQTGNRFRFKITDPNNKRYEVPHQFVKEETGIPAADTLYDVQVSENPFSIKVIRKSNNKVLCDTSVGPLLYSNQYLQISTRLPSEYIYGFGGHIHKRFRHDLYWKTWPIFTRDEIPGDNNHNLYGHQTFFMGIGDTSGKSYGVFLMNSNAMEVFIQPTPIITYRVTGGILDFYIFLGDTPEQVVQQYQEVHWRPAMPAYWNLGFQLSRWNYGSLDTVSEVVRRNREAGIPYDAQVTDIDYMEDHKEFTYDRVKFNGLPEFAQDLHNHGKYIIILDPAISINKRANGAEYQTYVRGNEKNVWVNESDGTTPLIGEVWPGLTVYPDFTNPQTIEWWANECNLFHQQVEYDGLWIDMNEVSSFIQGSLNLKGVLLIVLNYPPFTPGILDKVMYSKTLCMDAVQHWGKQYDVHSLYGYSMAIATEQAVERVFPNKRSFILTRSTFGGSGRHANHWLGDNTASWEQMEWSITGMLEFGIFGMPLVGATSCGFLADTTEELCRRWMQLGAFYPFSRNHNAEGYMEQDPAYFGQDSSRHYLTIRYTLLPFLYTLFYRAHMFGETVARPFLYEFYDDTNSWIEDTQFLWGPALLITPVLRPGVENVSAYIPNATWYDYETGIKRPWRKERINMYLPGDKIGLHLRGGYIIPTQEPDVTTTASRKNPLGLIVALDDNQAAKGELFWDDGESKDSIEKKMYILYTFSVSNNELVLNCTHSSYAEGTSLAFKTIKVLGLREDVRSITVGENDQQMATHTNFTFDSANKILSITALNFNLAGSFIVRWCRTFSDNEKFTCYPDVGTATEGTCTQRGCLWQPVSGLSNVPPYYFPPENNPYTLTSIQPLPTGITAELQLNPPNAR
Chain of Sucrase-isomaltase, intestinal (Rattus norvegicus) (P23739 1014-1841 limits assumed): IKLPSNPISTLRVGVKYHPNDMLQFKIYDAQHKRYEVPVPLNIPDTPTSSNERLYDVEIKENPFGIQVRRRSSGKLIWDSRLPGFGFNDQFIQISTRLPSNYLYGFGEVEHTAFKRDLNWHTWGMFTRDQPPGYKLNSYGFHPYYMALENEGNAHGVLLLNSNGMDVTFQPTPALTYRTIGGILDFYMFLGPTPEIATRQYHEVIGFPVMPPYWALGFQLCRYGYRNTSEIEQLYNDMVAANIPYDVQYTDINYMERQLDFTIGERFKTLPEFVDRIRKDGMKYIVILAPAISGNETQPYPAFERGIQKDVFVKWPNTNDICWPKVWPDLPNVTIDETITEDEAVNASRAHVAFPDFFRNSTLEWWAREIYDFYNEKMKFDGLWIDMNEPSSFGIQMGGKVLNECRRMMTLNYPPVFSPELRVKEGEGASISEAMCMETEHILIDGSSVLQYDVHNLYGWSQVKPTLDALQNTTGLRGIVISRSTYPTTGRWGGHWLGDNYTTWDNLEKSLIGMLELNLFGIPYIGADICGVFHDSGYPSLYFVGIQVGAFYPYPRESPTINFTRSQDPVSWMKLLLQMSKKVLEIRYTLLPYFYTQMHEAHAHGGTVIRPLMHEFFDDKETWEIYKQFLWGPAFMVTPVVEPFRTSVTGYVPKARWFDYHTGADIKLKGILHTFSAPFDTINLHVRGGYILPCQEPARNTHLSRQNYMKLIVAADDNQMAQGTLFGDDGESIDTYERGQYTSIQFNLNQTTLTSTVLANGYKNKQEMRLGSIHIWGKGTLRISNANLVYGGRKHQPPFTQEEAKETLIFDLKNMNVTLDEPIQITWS

[4] = target: Lysosomal alpha-glucosidase (Rattus norvegicus) (UniProt Q6P7A9); test: Inhibition of rat intestinal maltase at >384 uM
Chain of Lysosomal alpha-glucosidase (Rattus norvegicus) (Q6P7A9 whole entry): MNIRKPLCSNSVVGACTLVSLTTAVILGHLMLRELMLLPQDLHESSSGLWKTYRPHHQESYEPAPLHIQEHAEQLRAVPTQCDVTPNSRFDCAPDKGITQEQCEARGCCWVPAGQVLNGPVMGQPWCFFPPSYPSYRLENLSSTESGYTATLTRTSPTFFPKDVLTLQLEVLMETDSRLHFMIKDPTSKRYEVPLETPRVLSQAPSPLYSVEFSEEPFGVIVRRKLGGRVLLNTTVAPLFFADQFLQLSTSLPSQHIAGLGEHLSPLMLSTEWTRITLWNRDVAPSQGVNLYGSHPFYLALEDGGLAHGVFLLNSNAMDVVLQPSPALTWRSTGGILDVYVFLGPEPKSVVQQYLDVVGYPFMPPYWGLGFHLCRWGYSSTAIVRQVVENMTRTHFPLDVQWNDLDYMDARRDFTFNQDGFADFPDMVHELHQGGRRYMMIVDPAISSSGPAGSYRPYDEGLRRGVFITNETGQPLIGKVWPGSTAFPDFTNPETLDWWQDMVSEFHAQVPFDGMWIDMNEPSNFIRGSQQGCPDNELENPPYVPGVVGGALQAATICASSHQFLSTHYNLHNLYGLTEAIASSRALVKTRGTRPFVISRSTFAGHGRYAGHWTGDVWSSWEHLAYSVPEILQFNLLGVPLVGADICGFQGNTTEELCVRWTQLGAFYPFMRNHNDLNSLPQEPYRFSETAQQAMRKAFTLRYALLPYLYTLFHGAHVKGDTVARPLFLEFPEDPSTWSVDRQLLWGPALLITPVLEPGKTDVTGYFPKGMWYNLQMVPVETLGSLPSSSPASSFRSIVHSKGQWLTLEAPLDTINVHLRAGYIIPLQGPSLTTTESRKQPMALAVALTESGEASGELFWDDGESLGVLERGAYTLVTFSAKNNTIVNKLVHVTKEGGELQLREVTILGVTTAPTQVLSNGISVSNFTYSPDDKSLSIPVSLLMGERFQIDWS

T1 sequence (P23739 1-1013 limits assumed): as the sequence (P23739 1-1013 limits assumed) above
T1 sequence (P23739 1014-1841 limits assumed): as the sequence (P23739 1014-1841 limits assumed) above

Row | Structure (SMILES) | IC50 [1] [nM] | IC50 [2] [nM] | inhibition [3] [%] | inhibition [4] [%]
1 | O=S(=O)([O-])OC[C@@H](O)C[S@+]1C[C@@H](O)[C@H](O)[C@H]1CO | > 329000 | > 329000 |  | 
2 | OC[C@@H](O)C[S@+]1C[C@@H](O)[C@H](O)[C@H]1CO | > 384000 | 52900 | 34.5 | 
3 | OC[C@@H]1[C@@H](O)[C@H](O)C[S@@+]1C[C@@H](O)[C@@H](O)[C@H](O)[C@H](O)[C@@H](O)CO [NEOKOTALANOL] | 4500 | 1800 |  | 
4 | [O-][C@@H](CO)[C@H](O)C[S@+]1C[C@@H](O)[C@H](O)[C@H]1CO [NEOSALACINOL] | 1300 | 300 |  | 
5 | OC[C@H](O)C[S@+]1C[C@@H](O)[C@H](O)[C@H]1CO [NEOSALAPRINOL] | 90000 | 6500 |  | 35
6 | O=S(=O)([O-])OC[C@H](O)C[S@+]1C[C@@H](O)[C@H](O)[C@H]1CO [SALAPRINOL] | > 329000 | 15000 |  | 
7 | OCC(CO)N[C@H]1C[C@](O)(CO)[C@@H](O)[C@H](O)[C@H]1O [VOGLIBOSE] | 200 | 2100 |  | 

Second part, the compound after the results:

Row | IC50 [1] [nM] | IC50 [2] [nM] | inhibition [3] [%] | inhibition [4] [%] | Structure (SMILES)
8 | 2900 | 1000 |  |  | OC[C@@H](O)[C@@H](O)[C@H](O)[C@H](O)C[S@+]1C[C@@H](O)[C@H](O)[C@H]1CO
9 | 300 | 1000 |  |  | OC[C@@H]1[C@@H](O)[C@H](O)C[S@@+]1C[C@@H](O)[C@H](O)[C@H](O)[C@@H](O)CO
10 | 750 | 5700 |  |  | O=S(=O)([O-])O[C@@H]([C@H](O)[C@H](O)[C@@H](O)CO)[C@H](O)C[S+]1C[C@@H](O)[C@H](O)[C@H]1CO (stereo partly drawn) [KOTALANOL]
11 | 1000 | 1400 |  |  | OC[C@@H]1[C@@H](O)[C@H](O)C[S@@+]1C[C@@H](O)[C@@H](O)[C@H](O)[C@@H](O)CO [NEOPONKORANOL]
12 | 290 | 2600 |  |  | O=S(=O)([O-])O[C@@H]([C@H](O)[C@@H](O)CO)[C@H](O)C[S@+]1C[C@@H](O)[C@H](O)[C@H]1CO [PONKORANOL]
13 | 1600 | 1300 |  |  | O=S(=O)([O-])O[C@@H](CO)[C@H](O)C[S@+]1C[C@@H](O)[C@H](O)[C@H]1CO [SALACINOL]
